{"source": "patent US20240246964A1", "about": "(Arbutus Biopharma Corporation, priority 2021, published 2024)", "target": "human PD-L1 (Homo sapiens (Human), UniProt Q9NZQ7)", "sequence (Q9NZQ7 19-290)": "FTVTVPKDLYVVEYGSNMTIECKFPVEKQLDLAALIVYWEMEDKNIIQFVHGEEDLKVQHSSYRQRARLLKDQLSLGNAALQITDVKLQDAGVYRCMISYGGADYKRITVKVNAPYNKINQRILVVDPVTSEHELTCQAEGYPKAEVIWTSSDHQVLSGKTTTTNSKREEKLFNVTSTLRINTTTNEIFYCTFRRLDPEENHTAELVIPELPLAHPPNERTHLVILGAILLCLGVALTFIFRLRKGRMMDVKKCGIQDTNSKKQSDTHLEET", "test": "T cell activation luciferase reporter cell culture system (T Cell Activation Assay)", "type": "cell-based", "details": "luciferase reporter assay; PD-L1 aAPC/CHO-K1 cells with PD-1 effector Jurkat T cells", "data": [{"smiles": "COc1cc(-c2nccc(-c3cccc(-c4ccc(CNC5CCN(C(C)=O)CC5)c(OC)n4)c3C(F)(F)F)c2Cl)ccc1CNC1CCN(C(C)=O)CC1", "note": "[Example 528, 1-(4-(((6-(3-(2-(4-(((1-Acetylpiperidin-4-yl)amino)methyl)-3-methoxyphenyl)-3-chloropyridin-4-yl)-2-(trifluoromethyl)phenyl)-2-methoxypyridin-3-yl)methyl)amino)piperidin-1-yl)ethan-1-one]", "values": [{"measurement": "EC50", "result": "≥ 10000", "unit": "nM"}]}, {"smiles": "COc1cc(-c2nccc(-c3cccc(-c4ccc(CN5CC6(CCOCC6)C5)c(OC)n4)c3Cl)c2Cl)ccc1CNC1CCOCC1", "note": "[Example 531, N-(4-(4-(3-(5-((7-oxa-2-azaspiro[3.5]nonan-2-yl)methyl)-6-methoxypyridin-2-yl)-2-chlorophenyl)-3-chloropyridin-2-yl)-2-methoxybenzyl)tetrahydro-2H-pyran-4-amine]", "values": [{"measurement": "EC50", "result": 41.3, "unit": "nM"}]}, {"smiles": "COc1nc(N[C@H]2CCc3c(-c4nccc(-c5ccc6c(CNC[C@@H]7CCC(=O)N7)cn(C)c6n5)c4Cl)cccc32)c(C(F)(F)F)nc1CNC[C@@H]1CCC(=O)N1", "note": "[Example 532, (S)-5-((((6-(3-Chloro-2-((S)-1-((6-methoxy-5-(((((S)-5-oxopyrrolidin-2-yl)methyl)amino)methyl)-3-(trifluoromethyl)pyrazin-2-yl)amino)-2,3-dihydro-1H-inden-4-yl)pyridin-4-yl)-1-methyl-1H-pyrrolo[2,3-b]pyridin-3-yl)methyl)amino)methyl)pyrrolidin-2-one]", "values": [{"measurement": "EC50", "result": 143, "unit": "nM"}]}, {"smiles": "COc1cc(-c2nccc(-c3cccc(-c4ccc(CNC5CCN(C(=O)CO)CC5)c(OC)n4)c3Cl)c2Cl)ccc1CNC1CCN(C(C)=O)CC1", "note": "[Example 533, 1-(4-(((6-(3-(2-(4-(((1-Acetylpiperidin-4-yl)amino)methyl)-3-methoxyphenyl)-3-chloropyridin-4-yl)-2-chlorophenyl)-2-methoxypyridin-3-yl)methyl)amino)piperidin-1-yl)-2-hydroxyethan-1-one]", "values": [{"measurement": "EC50", "result": 13.5, "unit": "nM"}]}, {"smiles": "COc1cc(-c2nccc(-c3cccc(-c4ccc(CNCCCF)c(OC)n4)c3Cl)c2Cl)ccc1CNCCCF", "note": "[Example 534, N-((6-(2-Chloro-3-(3-chloro-2-(4-(((3-fluoropropyl)amino)methyl)-3-methoxyphenyl)pyridin-4-yl)phenyl)-2-methoxypyridin-3-yl)methyl)-3-fluoropropan-1-amine]", "values": [{"measurement": "EC50", "result": 56.7, "unit": "nM"}]}, {"smiles": "COc1cc(-c2ncnc(-c3cccc(-c4ccc(CN5CC6(CNC(=O)C6)C5)c(OC)n4)c3Cl)c2C)ccc1CN1CC2(CNC(=O)C2)C1", "note": "[Example 535, 2-((6-(2-Chloro-3-(6-(3-methoxy-4-((7-oxo-2,6-diazaspiro[3.4]octan-2-yl)methyl)phenyl)-5-methylpyrimidin-4-yl)phenyl)-2-methoxypyridin-3-yl)methyl)-2,6-diazaspiro[3.4]octan-7-one]", "values": [{"measurement": "EC50", "result": 1060, "unit": "nM"}]}, {"smiles": "COc1cc(-c2nccc(-c3cccc(-c4ccc(CNC5CCN(C(C)=O)CC5)c(OC)n4)c3Cl)c2Cl)ccc1CNCCCF", "note": "[Example 537, 1-(4-(((6-(2-Chloro-3-(3-chloro-2-(4-(((3-fluoropropyl)amino)methyl)-3-methoxyphenyl)pyridin-4-yl)phenyl)-2-methoxypyridin-3-yl)methyl)amino)piperidin-1-yl)ethan-1-one]", "values": [{"measurement": "EC50", "result": 41.6, "unit": "nM"}]}, {"smiles": "COc1cc(-c2nccc(-c3cccc(-c4ccc(CNC5CCN(C(=O)CO)CC5)c(OC)n4)c3Cl)c2Cl)ccc1CN[C@H]1CC[C@H](O)CC1", "note": "[Example 539, 1-(4-(((6-(2-Chloro-3-(3-chloro-2-(4-((((1r,4r)-4-hydroxycyclohexyl)amino)methyl)-3-methoxyphenyl)pyridin-4-yl)phenyl)-2-methoxypyridin-3-yl)methyl)amino)piperidin-1-yl)-2-hydroxyethan-1-one]", "values": [{"measurement": "EC50", "result": 31.8, "unit": "nM"}]}]}
